In PMC7195640, “New Synthetic 3-Benzoyl-5-Hydroxy-2H-Chromen-2-One (LM-031) Inhibits Polyglutamine Aggregation and Promotes Neurite Outgrowth through Enhancement of CREB, NRF2, and Reduction of AMPKα in SCA17 Cell Models” (Oxidative Medicine and Cellular Longevity, 2020):

What was measured:
CREB, pCREB (S133) = experiment: Western blot of CREB and pCREB in TBP/Q79-GFP SH-SY5Y cells; assay type: cell-based, Human; details: 100 nM; for pCREB/CREB (phosphor/total ratio), uninduced = 100%: induced SH-SY5Y cells, untreated induced 85%; for pCREB level, scrambled shRNA uninduced = 100%: scrambled shRNA-infected induced SH-SY5Y cells, untreated 81%
Protocol: (§1) Total proteins from TBP/Q79-GFP SH-SY5Y cells were obtained using a lysis buffer containing 50 mM Tris-HCl (pH 8.0), 150 mM NaCl, 1 mM EDTA (pH 8.0), 1 mM EGTA (pH 8.0), 0.1% SDS, 0.5% sodium deoxycholate, 1% Triton X-100, and a protease inhibitor cocktail (Sigma-Aldrich). After quantitation using a protein assay kit (Bio-Rad, Hercules, CA, USA), proteins (20 μg) were separated on 10−12% SDS-polyacrylamide gel electrophoresis and blotted onto polyvinylidene difluoride (PVDF) membranes (Sigma-Aldrich) by reverse electrophoresis. After blocking, the membrane was probed with CREB (1 : 1000; Santa Cruz Biotechnology, Santa Cruz, CA, USA), pCREB (S133) (1 : 1000; Santa Cruz Biotechnology), BCL2 (1 : 500; BioVision, Milpitas, CA, USA), GADD45B (1 : 1000; Abcam, Cambridge, MA, USA), BAX (1 : 500; BioVision), NRF2 (1 : 500; Santa Cruz Biotechnology), AMPKα (1 : 1000; Cell Signaling, Danvers, MA, USA), pAMPKα (T172) (1 : 1000; Cell Signaling), GAPDH (1 : 1000) (MDBio Inc., Taipei, Taiwan), or β-actin (1 : 5000; Millipore, Billerica, MA, USA) primary antibody at 4°C overnight. The immune complexes were detected using a horseradish peroxidase-conjugated goat anti-mouse or goat anti-rabbit IgG antibody (1 : 10000; GeneTex, Irvive, CA, USA) and a chemiluminescent substrate (Millipore).
(§2) To knockdown the expression of NRF2 and CREB in TBP/Q79-GFP SH-SY5Y cells, lentiviruses with short hairpin RNA (shRNA) targeting NRF2 (TRCN0000007558), CREB (TRCN0000226466), and a negative control scrambled (TRC2.Void) were obtained from the National RNAi Core Facility, Institute of Molecular Biology/Genomic Research Center, Academia Sinica, Taipei, Taiwan. On day 1, cells were plated on 6-well plates (8 × 10^5/well for protein analysis) or 24-well plates (2 × 10^4/well for neurite outgrowth analysis) in the presence of retinoic acid as described. On day 2, the cells were infected with lentivirus (multiplicity of infection: 3) in the presence of polybrene (8 μg/mL; Sigma-Aldrich) to increase infectivity. On day 3, the cells were pretreated with LM-031 or licochalcone A (100 nM) for 8 h; induction of TBP/Q79-GFP expression followed. On day 9, the cells were collected for NRF2 and CREB protein analysis or stained with Hoechst 33342 and analyzed for aggregation and neurite outgrowth as described.

[1] = tested on: TBP/Q79-GFP-expressing 293 cells; experiment: TBP/Q79 293 aggregation assay (high-content analysis of GFP fluorescence); assay type: cell-based, Human
Protocol: GFP fluorescence was evaluated to reflect TBP aggregation in TBP/Q79-GFP-expressing 293 cells. Briefly, cells were plated on 96-well (2 × 10^4/well) dishes, grown for 24 h and treated with different concentrations of licochalcone A or LM compounds (0.1 nM−100 μM) or a positive control suberoylanilide hydroxamic acid (SAHA, 100 nM) (Cayman Chemical, Ann Arbor, MI, USA). After 8 h, doxycycline (10 μg/mL) was added to the cells for 6 days to induce TBP/Q79-GFP expression. In addition, oxaliplatin (5 μM) (Sigma-Aldrich, St Louis, MO, USA) was included for TBP/Q79-GFP aggregate accumulation via blocking cell-cycle progression. On the eighth day, the cells were stained with Hoechst 33342 (0.1 μg/mL; Sigma-Aldrich) for 30 min, and cell images were automatically recorded (excitation/emission wavelengths of 482/536 nm for GFP and 377/447 nm for Hoechst 33342) by using an ImageXpress Micro Confocal High-Content Imaging System (Molecular Devices, Sunnyvale, CA, USA). Aggregation was determined by a Transfluor technology based on GFP fluorescence intensity. To quantify aggregation, the relative aggregation level in untreated cells was set as 100%. Aggregation was measured in wells containing ≥80% viable cells.

[2] = tested on: TBP/Q79-GFP-expressing SH-SY5Y cells; experiment: TBP/Q79-GFP SH-SY5Y aggregation assay (also with shRNA knockdown or AICAR); assay type: cell-based, Human; details: for polyQ aggregation / aggregation: SH-SY5Y cells; for reduction of aggregation: differentiated TBP/Q79-GFP SH-SY5Y cells, vs untreated
Protocol: (§3) On day 1, 2 × 10^4 of SH-SY5Y TBP/Q79-GFP cells were seeded on a 24-well plate with retinoic acid (10 μM; Sigma-Aldrich) added to induce neuronal differentiation. On day 2, the cells were treated with LM-031 or licochalcone A (100 nM) for 8 h and TBP/Q79-GFP expression was induced as described. On day 8, cells were stained with Hoechst 33342 (0.1 μg/mL) and the aggregation percentage and neurite outgrowth were assessed by high-content analysis as described. The morphologic differentiation of TBP/Q79-GFP-expressing cells was analyzed by using the Neurite Outgrowth Application Module (Molecular Devices).
as §2
(§4) AICAR (5-aminoimidazole-4-carboxamide 1-β-D-ribofuranoside) (Sigma-Aldrich), an analog of adenosine monophosphate (AMP), was used to stimulate AMP-dependent protein kinase (AMPK) activity. TBP/Q79-GFP SH-SY5Y cells were plated on 6-well or 24-well plates in the presence of retinoic acid as described. On day 2, the cells were pretreated with LM-031 or licochalcone A (100 nM) for 4 h; AICAR (0.1 mM) treatment and TBP/Q79-GFP induction followed. On day 8, the cells were collected for AMPKα and pAMPKα protein analysis or stained with Hoechst 33342 and analyzed for aggregation and neurite outgrowth as described.

[3] = MTT cytotoxicity assay in uninduced TBP/Q79-GFP SH-SY5Y cells; assay type: cell-based; details: human
Protocol: (§5) Compound cytotoxicity was assessed by colorimetric assay measuring cell metabolic activity. Briefly, TBP/Q79-GFP 293 and SH-SY5Y cells were seeded on a 48-well plate (5 × 10^4/well), grown for 20 h, and treated with licochalcone A or LM compounds (0.1–100 μM). After one day, cell viability was measured based on reduction of 3,(4,5-dimethylthiazol-2-yl)-2,5-diphenyltetrazolium bromide (MTT), and the absorbance of the insoluble purple formazan product at OD 570 nm was read by a FLx800 fluorescence microplate reader (Bio-Tek, Winooski, VT, USA).

BAX = experiment: Western blot of BAX in TBP/Q79-GFP SH-SY5Y cells; assay type: cell-based, Human; details: 100 nM, induced SH-SY5Y cells; untreated induced 156%
Protocol: as §1

[4] = tested on: TBP/Q79-GFP-expressing SH-SY5Y cells; experiment: TBP/Q79-GFP SH-SY5Y neurite outgrowth assay (also with shRNA knockdown or AICAR); assay type: cell-based, Human; details: for increased neurite outgrowth: vs untreated
Protocol: as §3, §2, §4

[5] = MTT cytotoxicity assay in uninduced TBP/Q79-GFP 293 cells; assay type: cell-based; details: human
Protocol: as §5

AMPKα, pAMPKα (T172) = experiment: Western blot of AMPKα and pAMPKα in TBP/Q79-GFP SH-SY5Y cells; assay type: cell-based, Human; details: induced SH-SY5Y cells
Protocol: as §1, §4

NRF2 = experiment: Western blot of NRF2 in TBP/Q79-GFP SH-SY5Y cells; assay type: cell-based, Human; details: 100 nM; for NRF2 protein level, uninduced = 100%: induced SH-SY5Y cells, untreated induced 72%; for NRF2 level, scrambled shRNA uninduced = 100%: scrambled shRNA-infected induced SH-SY5Y cells, untreated 54%
Protocol: as §1, §2

GADD45B = experiment: Western blot of GADD45B in TBP/Q79-GFP SH-SY5Y cells; assay type: cell-based, Human; details: 100 nM, induced SH-SY5Y cells; untreated induced 66–70%
Protocol: as §1

[6] = 100 nM compound + AICAR 0.1 mM, AICAR alone 5.2%
[7] = 100 nM, no AICAR, no treatment 4.6%
[8] = 100 nM compound + AICAR 0.1 mM, SH-SY5Y cells, AICAR alone 17.2 μm
[9] = 100 nM, NRF2 shRNA, SH-SY5Y cells
[10] = 100 nM, differentiated TBP/Q79-GFP SH-SY5Y cells
[11] = 100 nM, differentiated TBP/Q79-GFP SH-SY5Y cells, untreated 21.1 μm
[12] = 100 nM, no AICAR, SH-SY5Y cells, no treatment 19.6 μm
[13] = 100 nM, scrambled shRNA, SH-SY5Y cells, no treatment 21.6 μm

## O=C(c1ccccc1)c1cc2c(O)cccc2oc1=O [LM-031, 3-benzoyl-5-hydroxy-2H-chromen-2-one]
CREB, pCREB (S133)
  pCREB/CREB (phosphor/total ratio), uninduced = 100%: 110%
  pCREB level, scrambled shRNA uninduced = 100%: 107–112%
[1]; 10 nM–10 μM, significantly better than SAHA 100 nM (82%)
  TBP/Q79-GFP aggregation (untreated cells = 100%): 74–76%
[2]; [6]
  polyQ aggregation: 4.0%
[2]; 100 nM, NRF2 shRNA
  aggregation: 5.5%
[2]; 100 nM
  reduction of aggregation: 18–20%
[2]; [7]
  polyQ aggregation: 3.6–3.7%
[3]
  IC50 at 24 h: > 100 µM
BAX
  BAX protein level, uninduced = 100%: 103%
[4]; [8]
  neurite outgrowth: 21.6 μm
[4]; [9]
  neurite outgrowth: 17.8–18.1 μm
[4]; [10]
  increased neurite outgrowth: 19−22%
[4]; [11]
  neurite outgrowth: 25.1–25.6 μm
[4]; [12]
  neurite outgrowth: 23.0–23.6 μm
[4]; [13]
  neurite outgrowth: 23.8–24.6 μm
[5]
  IC50 at 24 h: > 100 µM
AMPKα, pAMPKα (T172); 100 nM compound + AICAR 0.1 mM, AICAR alone 160%
  pAMPKα level, uninduced = 100%: 96%
AMPKα, pAMPKα (T172); 100 nM, untreated induced 170%
  phosphor/total ratio of AMPKα, uninduced = 100%: 130%
AMPKα, pAMPKα (T172); 100 nM, no AICAR, untreated induced 134%
  pAMPKα level (phosphor/total ratio of AMPKα), uninduced = 100%: 110%
NRF2
  NRF2 protein level, uninduced = 100%: 96–100%
  NRF2 level, scrambled shRNA uninduced = 100%: 84–93%
GADD45B
  GADD45B protein level, uninduced = 100%: 104–105%

## O=C(CCCCCCC(=O)Nc1ccccc1)NO [SAHA, suberoylanilide hydroxamic acid, reference compound]
[1]; 100 nM, Dox + oxaliplatin 6 days
  TBP/Q79-GFP aggregation (untreated cells = 100%): 82%

## COc1ccc(C(=O)/C=C/c2cc(Br)ccc2O)cc1 [LM-004]
[3]
  IC50 at 24 h: 54 µM
[5]
  IC50 at 24 h: 45 µM

## COc1ccc(O)c(/C=C/C(=O)c2ccccc2)c1 [LM-006]
[3]
  IC50 at 24 h: 56 µM
[5]
  IC50 at 24 h: 47 µM

## C=CC(C)(C)c1cc(/C=C/C(=O)c2ccc(O)cc2)c(OC)cc1O [licochalcone A, reference compound]
CREB, pCREB (S133)
  pCREB/CREB (phosphor/total ratio), uninduced = 100%: 110%
  pCREB level, scrambled shRNA uninduced = 100%: 107–112%
[2]; [6]
  polyQ aggregation: 4.9%
[2]; 100 nM, NRF2 shRNA
  aggregation: 5.5%
[2]; 100 nM
  reduction of aggregation: 18–20%
[2]; [7]
  polyQ aggregation: 3.6–3.7%
[3]; uninduced TBP/Q79-GFP SH-SY5Y cells, MTT, compounds 0.1−100 μM for 24 h, read-out: IC50 cytotoxicity
  IC50 at 24 h: 57 µM
BAX
  BAX protein level, uninduced = 100%: 103%
[4]; [8]
  neurite outgrowth: 18.4 μm
[4]; [9]
  neurite outgrowth: 17.8–18.1 μm
[4]; [10]
  increased neurite outgrowth: 19−22%
[4]; [11]
  neurite outgrowth: 25.1–25.6 μm
[4]; [12]
  neurite outgrowth: 23.0–23.6 μm
[4]; [13]
  neurite outgrowth: 23.8–24.6 μm
[5]; uninduced TBP/Q79-GFP 293 cells, MTT, compounds 0.1−100 μM for 24 h, read-out: IC50 cytotoxicity
  IC50 at 24 h: 53 µM
NRF2
  NRF2 protein level, uninduced = 100%: 96–100%
  NRF2 level, scrambled shRNA uninduced = 100%: 84–93%
GADD45B
  GADD45B protein level, uninduced = 100%: 104–105%

## Cc1ccc(/C=C/C(=O)c2c(O)c3ccccc3oc2=O)cc1 [LM-016]
[3]
  IC50 at 24 h: > 100 µM
[5]
  IC50 at 24 h: > 100 µM

## NC(=O)c1ncn([C@@H]2O[C@H](CO)[C@@H](O)[C@H]2O)c1N [AICAR, 5-aminoimidazole-4-carboxamide 1-β-D-ribofuranoside]
[2]; AICAR 0.1 mM alone, no treatment 4.6%
  aggregation: 5.2%
[4]; AICAR 0.1 mM alone, SH-SY5Y cells, no treatment 19.6 μm
  neurite outgrowth: 17.2 μm
AMPKα, pAMPKα (T172); AICAR 0.1 mM alone, without AICAR 134%
  pAMPKα level, uninduced = 100%: 160%

## COc1cccc(/C=C/C(=O)c2ccc(O)cc2)c1O [LM-026]
[3]
  IC50 at 24 h: 58 µM
[5]
  IC50 at 24 h: 53 µM
